Data: patent publication US11584735B2, “Solid forms of a plasma kallikrein inhibitor and salts thereof” (KALVISTA PHARMACEUTICALS LIMITED, priority 2017, dated 2023)

What was measured:
blood = details: contacting blood with the inhibitor; cited from earlier work
[1] = tested on: intrinsic pathway of coagulation; details: in vitro; cited from earlier work
diabetic rats = details: cited from earlier work
rats = details: systemic administration; cited from earlier work
[2] = tested on: LPS-induced disseminated intravascular coagulation; details: cited from earlier work
Human KLK1 = Human KLK1 (Homo sapiens (Human), UniProt P06870); test: Determination of the IC50 for KLK1; format: biochemical; details: 25° C., substrate H-DVal-Leu-Arg-AFC
Chain of Human KLK1 (P06870 25-262): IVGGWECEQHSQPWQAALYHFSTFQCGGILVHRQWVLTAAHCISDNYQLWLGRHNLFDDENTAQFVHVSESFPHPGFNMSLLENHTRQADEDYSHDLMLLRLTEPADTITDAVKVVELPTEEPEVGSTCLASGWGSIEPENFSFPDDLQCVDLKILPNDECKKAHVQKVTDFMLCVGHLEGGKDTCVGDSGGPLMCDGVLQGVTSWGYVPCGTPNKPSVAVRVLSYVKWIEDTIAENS
Method: KLK1 inhibitory activity in vitro was determined using standard published methods (see e.g. Johansen et al., Int. J. Tiss. Reac. 1986, 8, 185; Shori et al., Biochem. Pharmacol., 1992, 43, 1209; Sturzebecher et al., Biol. Chem. Hoppe-Seyler, 1992, 373, 1025). Human KLK1 (Callbiochem) was incubated at 25° C. with the fluorogenic substrate H-DVal-Leu-Arg-AFC and various concentrations of the test compound. Residual enzyme activity (initial rate of reaction) was determined by measuring the change in optical absorbance at 410 nm and the IC50 value for the test compound was determined.

Human FXIa = Human FXIa (Homo sapiens (Human), UniProt P03951); test: Determination of the % inhibition / IC50 for FXIa; format: biochemical; details: 25° C., substrate Z-Gly-Pro-Arg-AFC
Chain of Human FXIa (P03951 388-625): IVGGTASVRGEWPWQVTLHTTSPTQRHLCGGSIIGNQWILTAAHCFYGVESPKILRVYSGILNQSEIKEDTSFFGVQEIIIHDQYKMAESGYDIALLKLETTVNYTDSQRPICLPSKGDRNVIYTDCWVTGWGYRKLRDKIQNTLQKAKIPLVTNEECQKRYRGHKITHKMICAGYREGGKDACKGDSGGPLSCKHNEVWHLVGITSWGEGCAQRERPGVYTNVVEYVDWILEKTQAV
Chain of Human FXIa (P03951 19-387 partner): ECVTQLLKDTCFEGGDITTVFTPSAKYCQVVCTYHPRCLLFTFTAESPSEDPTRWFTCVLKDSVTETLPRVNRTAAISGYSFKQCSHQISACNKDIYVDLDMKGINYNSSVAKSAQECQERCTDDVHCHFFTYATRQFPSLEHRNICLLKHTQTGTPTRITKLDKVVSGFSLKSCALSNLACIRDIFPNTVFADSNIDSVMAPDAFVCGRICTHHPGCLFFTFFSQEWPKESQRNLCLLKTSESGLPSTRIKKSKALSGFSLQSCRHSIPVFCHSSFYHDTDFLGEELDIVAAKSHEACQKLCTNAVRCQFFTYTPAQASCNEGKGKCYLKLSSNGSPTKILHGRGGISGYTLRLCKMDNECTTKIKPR

Human Factor XIIa = Human Factor XIIa (Homo sapiens (Human), UniProt P00748); test: Determination of the IC50 for FXIIa; format: biochemical; details: 25° C., substrate H-DPro-Phe-Arg-AFC
Chain of Human Factor XIIa (P00748 373-615): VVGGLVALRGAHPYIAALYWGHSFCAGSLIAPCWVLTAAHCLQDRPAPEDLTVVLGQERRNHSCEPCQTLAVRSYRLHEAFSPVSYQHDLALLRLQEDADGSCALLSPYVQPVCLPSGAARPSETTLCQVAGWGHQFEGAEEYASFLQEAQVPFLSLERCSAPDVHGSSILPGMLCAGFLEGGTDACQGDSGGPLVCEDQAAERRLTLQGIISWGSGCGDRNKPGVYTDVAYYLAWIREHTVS
Method: Factor XIIa inhibitory activity in vitro was determined using standard published methods (see e.g. Shori et al., Biochem. Pharmacol., 1992, 43, 1209; Baeriswyl et al., ACS Chem. Biol., 2015, 10 (8) 1861; Bouckaert et al., European Journal of Medicinal Chemistry 110 (2016) 181). Human Factor XIIa (Enzyme Research Laboratories) was incubated at 25° C. with the fluorogenic substrate H-DPro-Phe-Arg-AFC and various concentrations of the test compound. Residual enzyme activity (initial rate of reaction) was determined by measuring the […] and the IC50 value for the test compound was determined.

trypsin = test: Enzyme selectivity: trypsin; format: biochemical, human; details: substrate at Km concentration
Method: (§1) Human serine protease enzymes plasmin, thrombin and trypsin were assayed for enzymatic activity using an appropriate fluorogenic substrate. Protease activity was measured by monitoring the accumulation of liberated fluorescence from the substrate over 5 minutes. The linear rate of fluorescence increase per minute was expressed as percentage (%) activity. The Km for the cleavage of each substrate was determined by standard transformation of the Michaelis-Menten equation.

[3] = Metabolic stability in human liver microsomes; format: in vitro ADME; details: human liver microsomes 1 mg/mL, 5 μM test compound, 37° C.
Method: The metabolic stability was determined using standard published methods (Obach RS (1999) Drug Metab Dispos 27(11); 1350-135). Human liver microsomes (1 mg/mL; Corning) were incubated with 5 μM test compound at 37° C. on a shaking platform (150 rpm). Samples were taken at 0 and 60 min. The percentage test compound remaining at 60 minutes was determined by ratio of LCMS peak areas.

plasmin = plasmin (Homo sapiens (Human), UniProt P00747); details: read-out: IC50 Plasmin; substrate at Km concentration
Chain of plasmin (P00747 581-810): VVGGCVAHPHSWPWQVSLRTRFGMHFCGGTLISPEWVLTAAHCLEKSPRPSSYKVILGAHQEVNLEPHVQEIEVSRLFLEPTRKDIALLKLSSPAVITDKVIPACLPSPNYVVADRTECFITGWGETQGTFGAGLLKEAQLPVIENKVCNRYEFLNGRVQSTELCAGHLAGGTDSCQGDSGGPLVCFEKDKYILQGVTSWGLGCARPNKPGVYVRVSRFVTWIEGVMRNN
Chain of plasmin (P00747 97-580 partner): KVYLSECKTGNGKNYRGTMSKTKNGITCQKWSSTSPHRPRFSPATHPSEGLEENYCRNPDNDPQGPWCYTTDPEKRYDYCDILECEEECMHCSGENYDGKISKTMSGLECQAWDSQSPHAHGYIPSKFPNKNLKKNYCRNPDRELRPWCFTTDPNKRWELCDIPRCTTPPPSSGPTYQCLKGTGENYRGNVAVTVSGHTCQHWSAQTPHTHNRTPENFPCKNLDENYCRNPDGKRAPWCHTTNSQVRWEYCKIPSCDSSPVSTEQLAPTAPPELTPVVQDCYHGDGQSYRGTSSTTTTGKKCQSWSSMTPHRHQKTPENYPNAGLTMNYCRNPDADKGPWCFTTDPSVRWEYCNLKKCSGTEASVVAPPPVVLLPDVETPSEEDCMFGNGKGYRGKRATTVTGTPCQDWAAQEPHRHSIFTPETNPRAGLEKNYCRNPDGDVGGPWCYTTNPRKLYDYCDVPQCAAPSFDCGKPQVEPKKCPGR
Method: as §1

thrombin = thrombin (Homo sapiens (Human), UniProt P00734); details: read-out: IC50 Thrombin; substrate at Km concentration
Method: as §1

[4] = In vitro permeability, Caco-2 model; format: in vitro ADME; details: human, apical to basolateral, 37° C.
Method: In vitro permeability was determined using the Caco-2 model for oral absorption. The methodology was adapted from standard published methods (Wang Z, Hop C. E., Leung K. H. and Pang J. (2000) J Mass Spectrom 35(1); 71-76). The Caco-2 monolayers were established in a Biocoat™ HTS fibrillar collagen 24 well multiwell insert system (1.0 μm, PET membrane, Corning 354803) in which 200,000 cells were seeded into each insert and maintained over 3 days before being utilised in the permeability assay. For the assay, 50 μM test compound is added to the apical side of the inserts and incubated for 1 hour at 37° C. on a shaking platform (120 rpm). Apical to basolateral transport was determined by measuring the test article in both compartments by LCMS following the 1 hour incubation. The integrity of the Caco-2 monolayers was confirmed by two methods, (i) comparison of pre- and post-experiment transepithelial electrical resistance (TEER) and, (ii) assessment of Lucifer Yellow flux.

Ecallantide
Activated clotting time (ACT) (blood): increase in activated clotting time
Contact activated induced coagulation [1]: delay contact activated induced coagulation

N=C(N)c1ccc(CNC(=O)c2cnn(Cc3ccccc3)c2)cc1 [ASP-440]
Effect on retinal vascular permeability and retinal blood flow abnormalities (diabetic rats): ameliorated both retinal vascular permeability and retinal blood flow abnormalities
Hematoma expansion (rats): reduced hematoma expansion

Cl.NCC1CCC(C(=O)N[C@@H](Cc2ccccc2)C(=O)Nc2ccc(CC(=O)O)cc2)CC1 (stereo partly shown) [PKSI-527]
Effect on platelet count, fibrinogen level and FDP level [2]: significantly suppressed the decrease in platelet count and fibrinogen level as well as the increase in FDP level

COCc1nn(Cc2ccc(Cn3cc(F)ccc3=O)cc2)cc1C(=O)NCc1nccc(OC)c1F [Compound of Formula A, 1-({4-[(5-fluoro-2-oxopyridin-1-yl)methyl]phenyl}methyl)-N-[(3-fluoro-4-methoxypyridin-2-yl)methyl]-3-(methoxymethyl)pyrazole-4-carboxamide]
IC50 (Human KLK1): > 40 µM
IC50 (Human FXIa): > 40 µM
IC50 (Human Factor XIIa): > 40 µM
IC50 (trypsin): > 40 µM
% remaining at 60 minutes [3]: 25%
IC50 (plasmin): > 40 µM
IC50 (thrombin): > 40 µM

COCc1nn(Cc2ccc(Cn3ccccc3=O)cc2)cc1C(=O)NCc1nccc(OC)c1F [Example 41 of WO2016/083820, N-[(3-fluoro-4-methoxypyridin-2-yl)methyl]-3-(methoxymethyl)-1-({4-[(2-oxopyridin-1-yl)methyl]phenyl}methyl)pyrazole-4-carboxamide]
IC50 (Human KLK1): > 40 µM
IC50 (Human FXIa): > 40 µM
IC50 (Human Factor XIIa): > 40 µM
Papp at 1 h, 50 μM [4]: 9 ×10⁻⁶ cm/s
